Results from patent US20130263297A1, “METHODS OF TREATING CANCER” (Cedars-Sinai Medical Center, priority 2010, published 2013).
Entries after “also recorded” stand apart in the source; their conditions may differ.

How the values were obtained:
[1] = test system: ARCaPE, ARCaPM and ARCaPE-RANKL cells; test: In vitro migration and invasion assays (transwell), ARCaP model; format: cell-based, human
Method: (§1) Migration and invasion of cancer cells were examined in 24-well plates using either uncoated or collagen I- and growth factor reduced Matrigel (BD Biosciences, Bedford, Mass.)-coated transwells (8 μm pore size), respectively, as previously described. Cells were serum-starved in RPMI 1640 or T-medium (Invitrogen, Carlsbad, Calif.) overnight and dissociated in 10 mM EDTA/HEPES. The lifted cells were washed and counted, and 5×10^4 cells were seeded in 100 μl of serum-free RPMI 1640 or T-medium in the upper chamber of the transwells in the presence or absence of 1 μg/ml OPG and 400 μl of RPMI 1640 or T-medium supplemented with 5% FBS was placed in the lower chamber of the transwells. After 24 h (migration) and 48 h (invasion) of culturing at 37° C., the migrated and invaded cells were fixed with 10% formaldehyde, stained with 0.5% crystal violet, and the cells at the upper side of the membrane of the chamber were removed and quantified.

[2] = test system: LNCaP and LNCaP-RANKL cells; test: In vitro migration and invasion assays (transwell), LNCaP model; format: cell-based, human
Method: as §1

ARCaPE and ARCaPM cells = test: EMT marker / RANKL expression by RT-PCR and Western blot and morphology, ARCaP model; format: cell-based, human; parameters: N-cadherin expression in ARCaPE cells (Example 9) / E-cadherin expression in ARCaPE cells (Example 9) / Snail expression in ARCaPE cells (Example 9) / vimentin expression in ARCaPE cells (Example 9): dose or concentration left out as unconfirmed
Method: 4×10^5 ARCaP and PC3 cells were seeded into a 6-well plate and cultured for 48 hrs until they grow to 90% confluence. The RANKL siRNA (50 pmole) and siRNA control (50 pmole) and lipofetamine (2.5 ul) were mixed with 250 ul of OPTI-medium without any FBS, respectively and incubated at RT for 5 minutes. The DNA and lipofetamine were then mixed together and incubated for 20 minutes before adding to the cells in each well. The medium was changed to normal 5% T-medium after 6 h incubation. The cells were incubated at 37° C. for two days before harvesting.
Total of 30 ug of proteins per well from both ARCaPE and ARCaPM cells were run on a Tris-Bis 4-12% gradient polyacrylamide gel (Invitrogen) one and half hours at 150 Volts. The proteins on the gel were then transferred to PVDF membranes using Hoefer semi-dry system. The membranes were incubated with 5% skim milk in PBST (Blocking solution) for 20 min to block non-specific antibody labeling. The RANKL primary antibody was diluted with blocking solution (1:200 and 1:500) and incubated with the membrane for one hour at RT on a rocker or overnight at 4° C. The membrane was washed with PBST (PBS+0.01% TWEEN) three times for a minimum of 5 min each. Secondary rabbit anti-goat antibodies were incubated with the membrane for one hour at RT on a rocker. The membrane was again washed with PBST three times for 5 min each. Chemiluminescent substrate (Western Lightning) was evenly added across the top surface of the membrane, and the membrane was exposed to X-ray films for 30 seconds to 2 minutes depending on the strength of the signals and then developed according to the manufacturer's instructions.
For each reaction, a 50 μl PCR reaction mix containing 5 μl of 10×PCR buffer, 1.5 ul of 50 mM MgCl2, 1 ul of 10 mM dNTP, 1 ul of each forward and reverse primers (RANKL F: […] (SEQ ID NO:1) and RANKL R: […] (SEQ ID NO:2); GAPDH as the positive control), 3 ul cDNA, 37 ul double distilled water, and 0.5 μl of Taq polymerase (Invitrogen) was made. The reaction was first activated at 94° C. for 2 min and run for 36 cycles of 94° C. (30 sec-melting), 60° C. (30 sec-annealing), and 72° C. (60 sec-extension), and lastly incubated at 72° C. for 5 min to amplify the cDNA. A 1% gel electrophoresis was run with 5 μl of 100 by DNA ladder and 10 μl of amplified cDNA of each sample to check the size of the cDNA and also whether it was successfully synthesized under UV light. […]
ARCaPE or ARCaPM cells were seeded into 6-well plate and transiently transfected with flag-tagged RANKL or neo plasmid DNA under the regulation by CMV-promoter, or RANKL siRNA (Santa Cruz Biotechnology, Inc., Santa Cruz, Calif.) with an universal scramble siRNA which serves as the control (Invitrogen, Carlsbad, Calif.). After 48 h of transfection, cells were harvested for western blotting and RT-PCR analyses. For stable transfection, LNCaP cells were first transfected with either flag-tagged RANKL- or neo-control-plasmid cDNA (Sigma-Aldrich, St. Louis, Mo.) in a 6-well plate for 48 h, and the cells were trypsinized and seeded into a 15 cm dish. The cells contain the transfected vector were selected in 400 μg/ml of G418 until individual colonies that contain transfected construct were formed. LNCaP cell colonies expressing flag-tagged RANKL or neo plasmid were picked and the cells were amplified from a 48-well plate to a 10 cm dish in the presence of G418. Stable clones were maintained in 200 μg/ml of G418 and routinely checked for flag-RANKL expression by western blot analysis.
Total RNA from cells was isolated using RNeasy Mini Kit (Qiagen, Valencia, Calif.) according to manufacturer's instructions. […]

[3] = test system: RANKL promoter in LNCaP and LNCaP-RANKL cells; test: RANKL promoter reporter assay, LNCaP model; format: cell-based, human
cMet in LNCaP cells = test: cMet expression and phosphorylation (Western blot), LNCaP; format: cell-based, human
cMet in ARCaPE cells = test: cMet expression and phosphorylation (Western blot), ARCaPE; format: cell-based, human
ARCaPE-RANKL cells = test: Soft agar (anchorage-independent) colony formation, ARCaPE-RANKL; format: cell-based, human; details: addition of OPG
LNCaP-RANKL cells = test: Soft agar (anchorage-independent) colony formation, LNCaP-RANKL; format: cell-based, human; details: addition of OPG
[4] = test system: RANKL-expressing prostate cancer cells; test: Stem cell and neuroendocrine marker expression; format: cell-based
human cancer cells = test: Bone colonization by human cancer cells (FIG. 34); format: in vivo; details: recombinant sRANKL
[5] = test system: prostate (ARCaP and LNCaP) and osteosarcoma (MG-63 and Saos-2) cells; normal prostate (PrEC and RWPE-1) or bone (RAW264.7) cells; test: RANKL induction of its own expression, cancer versus normal cells; format: cell-based
[6] = OPG (vs RANKL) or anti-HGF antibody (vs HGF) treatment
[7] = recombinant RANKL 200 and 400, four days
[8] = exogeneous RANKL or HGF treatment

osteoprotegerin [OPG]
increased migration and invasion of ARCaPE-RANKL cells ([1]; OPG treatment): suppressed
migration and invasion of ARCaPM cells ([1]; OPG treatment, 1 μg/ml): antagonized; also recorded: decreased
RANKL-induced increase of migration and invasion of ARCaPE cells ([1]; presence of OPG): abrogated
increased migration and invasion of LNCaP-RANKL cells ([2]; OPG treatment): antagonized; also recorded: suppressed
RANKL-induced increase of migration and invasion of LNCaP cells ([2]; presence of OPG): abrogated
RANKL expression in ARCaPM cells (ARCaPE and ARCaPM cells; 1 ug/ml of OPG): down-regulated
Vimentin in ARCaPE cells (WB) (ARCaPE and ARCaPM cells; RANKL plus OPG): significantly reduced
N-cad and Vimentin expression in ARCaPE cells (RT-PCR) (ARCaPE and ARCaPM cells; RANKL plus OPG compared to 300 ng/ml RANKL): slightly decreased
E-cad expression in ARCaPE cells (RT-PCR, WB) (ARCaPE and ARCaPM cells; RANKL plus OPG compared to RANKL): restore
RANKL-induced EMT and cadherin switch in ARCaPE cells (ARCaPE and ARCaPM cells; addition of OPG): blocked; also recorded: abolished
RANKL-induced RANKL expression in ARCaPE cells (ARCaPE and ARCaPM cells; addition of OPG): attenuated
EMT phenotype of ARCaPM cells (morphology, mesenchymal genes, cadherin switch) (ARCaPE and ARCaPM cells; exposure to OPG (1 μg/ml)): reversed
increased RANKL promoter activity in LNCaP-RANKL cells ([3]; OPG treatment): attenuated
RANKL- or HGF-induced cMet expression and phosphorylation in LNCaP cells (cMet in LNCaP cells; [6]): abrogated
RANKL- or HGF-induced cMet expression and phosphorylation in ARCaPE cells (cMet in ARCaPE cells; [6]): abrogated
soft agar colony formation (tumorigenicity) of ARCaPE-RANKL cells (ARCaPE-RANKL cells): attenuated
soft agar colony formation (tumorigenicity) of LNCaP-RANKL cells (LNCaP-RANKL cells): attenuated
expression of neuroendocrine markers [4]: blocked
expression of stem cell markers [4]: antagonized

B1: RANKL: trimerized recombinant RANKL protein (rRANKL), receptor activator of NF-KB ligand (protein, UniProt O14788 69-317, looked up)
extracellular domain: YFRAQMDPNRISEDGTHCIYRILRLHENADFQDTTLESQDTKLIPDSCRRIKQAFQGAVQKELQHIVGSQHIRAEKAMVDGSWLDLAKRSKLEAQPFAHLTINATDIPSGSHKVSLSSWYHDRGWAKISNMTFSNGKLIVNQDGFYYLYANICFRHHETSGDLATEYLQLMVYVTKTSIKIPSSHTLMKGGSTKYWSGNSEFHFYSINVGGFFKLRSGEEISIEVSNPSLLDPDQDATYFGAFKVRDID
modifications: extracellular domain trimerized
migration and invasion of ARCaPE cells ([1]; recombinant RANKL treatment): increased
migration and invasion of LNCaP cells ([2]; recombinant RANKL treatment): increased
E-cadherin expression in ARCaPE cells (ARCaPE and ARCaPM cells; 200 ng/ml recombinant RANKL): down-regulated
N-cadherin expression in ARCaPE cells (ARCaPE and ARCaPM cells; 200 ng/ml recombinant RANKL): up-regulated
Snail, vimentin, and RANKL expression in ARCaPE cells (ARCaPE and ARCaPM cells; 200 ng/ml recombinant RANKL): up-regulation
cell morphology of ARCaPE cells (ARCaPE and ARCaPM cells; 200 ng/ml recombinant RANKL protein, 8-day period): gradually changed their morphology from cobble-stoned clusters to more dispersed and fibroblastic-like appearance
Vimentin in ARCaPE cells (WB) (ARCaPE and ARCaPM cells; RANKL alone): only slightly increased
RANKL expression at mRNA and protein levels in ARCaPE cells (ARCaPE and ARCaPM cells; RANKL treatment): up-regulated
N-cadherin expression in ARCaPE cells (Example 9) (ARCaPE and ARCaPM cells; [7]): slightly increased
Snail expression in ARCaPE cells (Example 9) (ARCaPE and ARCaPM cells; [7]): no effect
vimentin expression in ARCaPE cells (Example 9) (ARCaPE and ARCaPM cells; [7]): increases
E-cadherin expression in ARCaPE cells (Example 9) (ARCaPE and ARCaPM cells; recombinant RANKL 200 and 400, four days, RNA and protein level): decrease
RANKL promoter activity in LNCaP cells ([3]; RANKL treatment): induction
cMet expression and phosphorylated level of cMet in LNCaP cells (cMet in LNCaP cells; [8]): significantly increased
cMet expression and phosphorylated level of cMet in ARCaPE cells (cMet in ARCaPE cells; [8]): significantly increased
bone colonization by human cancer cells (human cancer cells): promotes bone colonization
ability of recombinant RANKL to induce its own expression [5]: restricted to cancer
